Laboratory results taken from ChEMBL document CHEMBL4507300 (2021).

Experiments:
[1] = target: Serine/threonine-protein kinase 24 (Homo sapiens) (UniProt Q9Y6E0); conditions: Compound concentration 1000.0 nM
[2] = target: Mitogen-activated protein kinase kinase kinase 11 (Homo sapiens) (UniProt Q16584); conditions: Compound concentration 1000.0 nM
[3] = target: Protein kinase C epsilon type (Homo sapiens) (UniProt Q02156); conditions: Compound concentration 1000.0 nM
[4] = target: Cyclin-dependent kinase 16 (Homo sapiens) (UniProt Q00536); conditions: Compound concentration 1000.0 nM
Chain of Cyclin-dependent kinase 16 (Homo sapiens) (Q00536 whole entry): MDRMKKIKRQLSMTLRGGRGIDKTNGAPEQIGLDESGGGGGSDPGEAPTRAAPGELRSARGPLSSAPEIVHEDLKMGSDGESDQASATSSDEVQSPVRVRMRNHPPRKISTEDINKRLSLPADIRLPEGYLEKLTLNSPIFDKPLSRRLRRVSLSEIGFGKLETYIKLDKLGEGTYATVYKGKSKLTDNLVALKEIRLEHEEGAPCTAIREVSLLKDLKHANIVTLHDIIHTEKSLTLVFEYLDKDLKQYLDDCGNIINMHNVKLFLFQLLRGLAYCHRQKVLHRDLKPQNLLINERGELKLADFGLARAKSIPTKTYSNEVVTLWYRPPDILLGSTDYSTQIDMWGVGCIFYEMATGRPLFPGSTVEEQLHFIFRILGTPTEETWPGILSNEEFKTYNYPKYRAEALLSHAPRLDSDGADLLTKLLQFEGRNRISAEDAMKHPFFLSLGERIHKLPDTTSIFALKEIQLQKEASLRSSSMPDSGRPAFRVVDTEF

[5] = target: Serine/threonine-protein kinase Nek6 (Homo sapiens) (UniProt Q9HC98); conditions: Compound concentration 1000.0 nM
[6] = target: Serine/threonine-protein kinase OSR1 (Homo sapiens) (UniProt O95747); conditions: Compound concentration 1000.0 nM
[7] = target: cGMP-dependent protein kinase 2 (Homo sapiens) (UniProt Q13237); conditions: Compound concentration 1000.0 nM
[8] = target: STE20-like serine/threonine-protein kinase (Homo sapiens) (UniProt Q9H2G2); conditions: Compound concentration 1000.0 nM
[9] = target: ALK tyrosine kinase receptor (Homo sapiens) (UniProt Q9UM73); conditions: Compound concentration 1000.0 nM
[10] = target: Dual specificity mitogen-activated protein kinase kinase 3 (Homo sapiens) (UniProt P46734); conditions: Compound concentration 1000.0 nM
[11] = tested on: Leucine-rich repeat serine/threonine-protein kinase 2 (Homo sapiens), Q5S007 [G2019S]; conditions: Compound concentration 1000.0 nM
[12] = tested on: Tyrosine-protein kinase ABL1 (Homo sapiens), P00519 [E255K]; conditions: Compound concentration 1000.0 nM
[13] = target: Casein kinase I isoform alpha (Homo sapiens) (UniProt P48729); conditions: Compound concentration 1000.0 nM
[14] = target: Serine/threonine-protein kinase MRCK gamma (Homo sapiens) (UniProt Q6DT37); conditions: Compound concentration 1000.0 nM
[15] = target: Mitogen-activated protein kinase 13 (Homo sapiens) (UniProt O15264); conditions: Compound concentration 1000.0 nM
[16] = target: Interleukin-1 receptor-associated kinase 1 (Homo sapiens) (UniProt P51617); conditions: Compound concentration 1000.0 nM
[17] = target: Cyclin-dependent kinase 18 (Homo sapiens) (UniProt Q07002); conditions: Compound concentration 1000.0 nM
[18] = target: Tyrosine-protein kinase CSK (Homo sapiens) (UniProt P41240); conditions: Compound concentration 1000.0 nM
[19] = tested on: Mast/stem cell growth factor receptor Kit (Homo sapiens), P10721 [V559D]; conditions: Compound concentration 1000.0 nM
[20] = target: Serine/threonine-protein kinase Nek1 (Homo sapiens) (UniProt Q96PY6); conditions: Compound concentration 1000.0 nM
[21] = target: D(1A) dopamine receptor (Homo sapiens) (UniProt P21728); conditions: Compound concentration 10.0 uM
Chain of D(1A) dopamine receptor (Homo sapiens) (P21728 whole entry): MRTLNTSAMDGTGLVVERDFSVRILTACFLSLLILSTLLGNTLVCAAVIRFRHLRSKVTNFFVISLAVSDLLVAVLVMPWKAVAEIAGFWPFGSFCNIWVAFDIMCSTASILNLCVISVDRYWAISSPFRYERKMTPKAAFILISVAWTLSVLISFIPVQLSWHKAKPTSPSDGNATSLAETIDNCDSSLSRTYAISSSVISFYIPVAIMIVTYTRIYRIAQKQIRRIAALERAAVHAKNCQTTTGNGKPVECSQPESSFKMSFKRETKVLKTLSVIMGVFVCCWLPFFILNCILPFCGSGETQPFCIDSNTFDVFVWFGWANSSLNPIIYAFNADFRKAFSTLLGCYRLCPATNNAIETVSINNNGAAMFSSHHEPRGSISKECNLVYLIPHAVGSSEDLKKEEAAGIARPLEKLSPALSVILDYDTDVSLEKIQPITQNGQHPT

[22] = tested on: Mast/stem cell growth factor receptor Kit (Homo sapiens), P10721 [A829P]; conditions: Compound concentration 1000.0 nM
[23] = target: Vascular endothelial growth factor receptor 3 (Homo sapiens) (UniProt P35916); conditions: Compound concentration 1000.0 nM
[24] = target: Death-associated protein kinase 2 (Homo sapiens) (UniProt Q9UIK4); conditions: Compound concentration 1000.0 nM
[25] = tested on: Mast/stem cell growth factor receptor Kit (Homo sapiens), P10721 [L576P]; conditions: Compound concentration 1000.0 nM
[26] = target: Serine/threonine-protein kinase N1 (Homo sapiens) (UniProt Q16512); conditions: Compound concentration 1000.0 nM
[27] = target: Death-associated protein kinase 1 (Homo sapiens) (UniProt P53355); conditions: Compound concentration 1000.0 nM
[28] = target: 5-hydroxytryptamine receptor 3A (Homo sapiens) (UniProt P46098); conditions: Compound concentration 10.0 uM
[29] = target: Mitogen-activated protein kinase kinase kinase 15 (Homo sapiens) (UniProt Q6ZN16); conditions: Compound concentration 1000.0 nM
[30] = target: Ephrin type-A receptor 6 (Homo sapiens) (UniProt Q9UF33); conditions: Compound concentration 1000.0 nM
Chain of Ephrin type-A receptor 6 (Homo sapiens) (Q9UF33 whole entry): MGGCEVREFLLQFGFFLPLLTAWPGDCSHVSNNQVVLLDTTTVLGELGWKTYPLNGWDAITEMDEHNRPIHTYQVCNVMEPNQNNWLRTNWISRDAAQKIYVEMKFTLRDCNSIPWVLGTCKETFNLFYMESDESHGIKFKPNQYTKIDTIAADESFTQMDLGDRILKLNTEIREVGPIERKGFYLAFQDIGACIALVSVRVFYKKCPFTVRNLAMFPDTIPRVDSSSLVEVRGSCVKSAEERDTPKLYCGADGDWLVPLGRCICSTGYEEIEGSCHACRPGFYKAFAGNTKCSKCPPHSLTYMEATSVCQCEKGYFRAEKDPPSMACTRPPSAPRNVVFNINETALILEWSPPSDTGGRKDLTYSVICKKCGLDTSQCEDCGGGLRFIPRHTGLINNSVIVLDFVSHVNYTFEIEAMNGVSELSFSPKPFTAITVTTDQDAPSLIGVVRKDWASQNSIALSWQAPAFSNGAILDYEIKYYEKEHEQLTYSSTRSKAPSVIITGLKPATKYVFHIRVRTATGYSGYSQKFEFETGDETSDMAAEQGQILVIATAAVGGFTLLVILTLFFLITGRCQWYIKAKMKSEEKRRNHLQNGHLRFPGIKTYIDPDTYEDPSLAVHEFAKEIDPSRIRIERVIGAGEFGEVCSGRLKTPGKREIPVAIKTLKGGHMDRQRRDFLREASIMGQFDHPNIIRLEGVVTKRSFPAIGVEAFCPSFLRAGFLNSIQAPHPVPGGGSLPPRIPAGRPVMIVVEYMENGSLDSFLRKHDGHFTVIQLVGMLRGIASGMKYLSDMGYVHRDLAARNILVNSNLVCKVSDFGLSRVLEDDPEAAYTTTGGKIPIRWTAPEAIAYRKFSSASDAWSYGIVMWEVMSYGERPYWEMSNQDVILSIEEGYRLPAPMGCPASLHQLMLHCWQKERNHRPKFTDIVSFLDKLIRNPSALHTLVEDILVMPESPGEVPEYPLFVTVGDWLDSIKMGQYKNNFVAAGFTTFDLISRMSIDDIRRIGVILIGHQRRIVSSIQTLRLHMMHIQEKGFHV

[31] = target: Aurora kinase B (Homo sapiens) (UniProt Q96GD4); conditions: Compound concentration 1000.0 nM
[32] = target: Protein-tyrosine kinase 6 (Homo sapiens) (UniProt Q13882); conditions: Compound concentration 1000.0 nM
[33] = target: Beta-adrenergic receptor kinase 1 (Homo sapiens) (UniProt P25098); conditions: Compound concentration 1000.0 nM
[34] = tested on: eIF-2-alpha kinase GCN2 (Homo sapiens), Q9P2K8 [S808G]; conditions: Compound concentration 1000.0 nM
[35] = target: Mitogen-activated protein kinase kinase kinase 5 (Homo sapiens) (UniProt Q99683); conditions: Compound concentration 1000.0 nM
[36] = target: Serine/threonine-protein kinase 38-like (Homo sapiens) (UniProt Q9Y2H1); conditions: Compound concentration 1000.0 nM
[37] = target: Sodium-dependent dopamine transporter (Homo sapiens) (UniProt Q01959); conditions: Compound concentration 10.0 uM
[38] = target: TGF-beta receptor type-1 (Homo sapiens) (UniProt P36897); conditions: Compound concentration 1000.0 nM
[39] = target: Bone morphogenetic protein receptor type-1A (Homo sapiens) (UniProt P36894); conditions: Compound concentration 1000.0 nM
[40] = target: Phosphatidylinositol 4-phosphate 5-kinase type-1 gamma (Homo sapiens) (UniProt O60331); conditions: Compound concentration 1000.0 nM
[41] = target: Serine/threonine-protein kinase N2 (Homo sapiens) (UniProt Q16513); conditions: Compound concentration 1000.0 nM
Chain of Serine/threonine-protein kinase N2 (Homo sapiens) (Q16513 whole entry, looked up): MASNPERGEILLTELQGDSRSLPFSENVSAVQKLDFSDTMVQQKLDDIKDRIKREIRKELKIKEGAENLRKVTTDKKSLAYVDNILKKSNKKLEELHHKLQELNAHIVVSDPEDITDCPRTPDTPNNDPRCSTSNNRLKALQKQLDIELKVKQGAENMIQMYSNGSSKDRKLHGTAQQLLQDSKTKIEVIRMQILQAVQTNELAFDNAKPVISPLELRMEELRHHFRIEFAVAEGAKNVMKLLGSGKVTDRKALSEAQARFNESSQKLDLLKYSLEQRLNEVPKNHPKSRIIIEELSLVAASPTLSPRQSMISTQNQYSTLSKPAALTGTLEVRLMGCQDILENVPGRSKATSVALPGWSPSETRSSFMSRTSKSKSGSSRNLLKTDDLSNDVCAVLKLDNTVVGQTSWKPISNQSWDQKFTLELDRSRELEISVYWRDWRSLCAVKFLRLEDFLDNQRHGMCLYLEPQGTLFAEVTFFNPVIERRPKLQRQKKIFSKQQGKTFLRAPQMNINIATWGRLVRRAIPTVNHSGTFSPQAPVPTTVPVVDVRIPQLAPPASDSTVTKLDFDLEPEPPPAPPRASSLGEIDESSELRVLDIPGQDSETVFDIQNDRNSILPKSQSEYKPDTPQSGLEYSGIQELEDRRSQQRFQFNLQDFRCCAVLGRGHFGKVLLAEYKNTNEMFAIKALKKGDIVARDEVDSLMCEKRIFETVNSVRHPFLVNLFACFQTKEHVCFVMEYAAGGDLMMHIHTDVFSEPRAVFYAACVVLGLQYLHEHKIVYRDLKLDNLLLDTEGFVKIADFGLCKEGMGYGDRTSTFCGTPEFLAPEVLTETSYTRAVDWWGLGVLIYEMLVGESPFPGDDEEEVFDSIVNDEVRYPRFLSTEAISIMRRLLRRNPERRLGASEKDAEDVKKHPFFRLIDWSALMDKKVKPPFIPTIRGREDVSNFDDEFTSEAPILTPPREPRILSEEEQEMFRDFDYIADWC

[42] = target: Serine/threonine-protein kinase TBK1 (Homo sapiens) (UniProt Q9UHD2); conditions: Compound concentration 1000.0 nM
[43] = target: G protein-coupled receptor kinase 3 (Homo sapiens) (UniProt P35626); conditions: Compound concentration 1000.0 nM
Chain of G protein-coupled receptor kinase 3 (Homo sapiens) (P35626 whole entry): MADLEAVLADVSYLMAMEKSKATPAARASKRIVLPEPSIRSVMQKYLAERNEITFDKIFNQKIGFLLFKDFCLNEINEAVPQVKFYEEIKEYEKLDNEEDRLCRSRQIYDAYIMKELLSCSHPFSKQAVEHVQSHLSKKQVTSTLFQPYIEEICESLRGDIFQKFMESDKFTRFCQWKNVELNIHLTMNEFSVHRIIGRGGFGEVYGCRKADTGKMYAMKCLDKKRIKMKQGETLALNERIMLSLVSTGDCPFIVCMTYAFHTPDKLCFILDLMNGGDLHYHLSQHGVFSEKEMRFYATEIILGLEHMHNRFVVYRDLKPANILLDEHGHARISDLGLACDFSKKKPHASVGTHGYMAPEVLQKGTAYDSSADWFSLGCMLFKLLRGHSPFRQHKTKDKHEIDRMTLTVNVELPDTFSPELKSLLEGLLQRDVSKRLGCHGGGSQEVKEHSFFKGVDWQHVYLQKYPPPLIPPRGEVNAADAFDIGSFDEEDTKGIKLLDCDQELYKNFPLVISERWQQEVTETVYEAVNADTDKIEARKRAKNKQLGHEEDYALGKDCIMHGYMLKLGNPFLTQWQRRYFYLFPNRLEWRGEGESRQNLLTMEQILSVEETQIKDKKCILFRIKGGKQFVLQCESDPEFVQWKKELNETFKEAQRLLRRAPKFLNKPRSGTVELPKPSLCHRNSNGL

[44] = target: Ephrin type-A receptor 1 (Homo sapiens) (UniProt P21709); conditions: Compound concentration 1000.0 nM
[45] = target: Serine/threonine-protein kinase 16 (Homo sapiens) (UniProt O75716); conditions: Compound concentration 1000.0 nM

Chain of Protein kinase C epsilon type (Homo sapiens) (Q02156 whole entry): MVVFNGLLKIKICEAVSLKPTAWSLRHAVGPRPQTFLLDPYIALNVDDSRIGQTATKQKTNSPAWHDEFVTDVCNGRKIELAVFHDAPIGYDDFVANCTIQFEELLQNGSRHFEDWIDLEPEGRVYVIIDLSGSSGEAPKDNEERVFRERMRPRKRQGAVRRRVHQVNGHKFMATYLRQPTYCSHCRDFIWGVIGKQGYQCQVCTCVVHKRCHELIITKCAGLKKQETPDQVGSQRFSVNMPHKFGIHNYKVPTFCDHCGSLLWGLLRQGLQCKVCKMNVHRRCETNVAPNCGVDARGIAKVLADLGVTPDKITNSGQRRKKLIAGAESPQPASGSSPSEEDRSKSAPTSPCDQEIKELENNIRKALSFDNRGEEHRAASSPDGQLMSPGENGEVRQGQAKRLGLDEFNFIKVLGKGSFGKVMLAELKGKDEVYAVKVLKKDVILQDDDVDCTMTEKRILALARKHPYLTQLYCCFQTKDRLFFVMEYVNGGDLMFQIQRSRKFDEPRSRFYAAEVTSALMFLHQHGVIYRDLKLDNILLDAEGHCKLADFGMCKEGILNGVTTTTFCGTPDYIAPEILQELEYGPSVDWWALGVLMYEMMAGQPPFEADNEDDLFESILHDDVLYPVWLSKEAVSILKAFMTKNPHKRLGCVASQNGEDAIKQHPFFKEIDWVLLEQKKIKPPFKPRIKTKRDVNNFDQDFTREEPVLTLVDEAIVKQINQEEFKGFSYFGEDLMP
Chain of Serine/threonine-protein kinase 24 (Homo sapiens) (Q9Y6E0 whole entry, looked up): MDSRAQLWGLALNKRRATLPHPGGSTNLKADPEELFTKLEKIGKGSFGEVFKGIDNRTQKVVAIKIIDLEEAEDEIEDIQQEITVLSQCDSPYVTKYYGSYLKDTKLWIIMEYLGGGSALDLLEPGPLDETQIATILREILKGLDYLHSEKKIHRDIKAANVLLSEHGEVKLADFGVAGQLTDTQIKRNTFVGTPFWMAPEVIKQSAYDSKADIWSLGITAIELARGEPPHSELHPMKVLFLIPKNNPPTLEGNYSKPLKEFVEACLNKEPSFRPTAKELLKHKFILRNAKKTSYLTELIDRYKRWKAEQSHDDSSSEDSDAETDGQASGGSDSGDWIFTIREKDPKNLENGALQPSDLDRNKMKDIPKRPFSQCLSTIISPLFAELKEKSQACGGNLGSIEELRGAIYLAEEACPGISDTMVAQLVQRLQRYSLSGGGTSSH

COc1cccc(CNC(=O)c2nc3scc(COCc4ccc(C(=O)O)cc4)c3c(=O)[nH]2)c1 [T-26c]
inactive: residual activity [1] 100% | residual activity [2] 100% | residual activity [3] 62% | residual activity [4] 91.9% | residual activity [5] 71% | residual activity [6] 71.9% | residual activity [7] 100% | residual activity [8] 100% | residual activity [9] 92% | residual activity [10] 92.9% | residual activity [11] 94.6% | residual activity [12] 83% | residual activity [13] 82.1% | residual activity [14] 99.4% | residual activity [15] 100% | residual activity [16] 75.6% | residual activity [17] 100% | residual activity [18] 100% | residual activity [19] 99.1% | residual activity [20] 100% | inhibition [21] -6.24% | residual activity [22] 69.2% | residual activity [23] 100% | residual activity [24] 83.1% | residual activity [25] 100% | residual activity [26] 100% | residual activity [27] 100% | inhibition [28] 6.87% | residual activity [29] 100% | residual activity [30] 85.4% | residual activity [31] 71.3% | residual activity [32] 82.5% | residual activity [33] 50.1% | residual activity [34] 100% | residual activity [35] 97.8% | residual activity [36] 87.7% | inhibition [37] 9.28% | residual activity [38] 83.2% | residual activity [39] 100% | residual activity [40] 63.7% | residual activity [41] 98% | residual activity [42] 94% | residual activity [43] 72.5% | residual activity [44] 79.9% | residual activity [45] 87.2%
